System: ventilator-associated pneumonia caused by carbapenem-resistant Acinetobacter baumannii
Experiment: Clinical and microbiological outcomes of CMS nebulization
Format: in vivo
Conditions: of 20 patients
Experimental: Patients were treated with CMS (Xellia Pharmaceuticals ApS, Copenhagen, Denmark) at a total of 3.75 MIU (equivalent to 300 mg of CMS or 112.5 mg of CBA) administered four times a day at 6 h intervals. CMS was dissolved in 5 mL of normal saline and administered over 30 min through a jet nebulizer (Sileo 54, Macjin Medical, Seoul, Republic of Korea) connected to the ventilator circuit. Bronchoalveolar lavage fluid (BALF) was obtained by instilling 20 mL of normal saline into the right middle lobe or left lingular segmental bronchus using a bronchoscope, followed by immediate aspiration and collection into a syringe. Samples were collected immediately before the nebulization treatment and at 1, 3, and 5 h after the start of the treatment. Blood samples were collected before the nebulization treatment and at 1, 2, 3, and 5 h thereafter. Both BALF and blood samples were centrifuged at 3000× g for 10 min within 1 h of collection and the supernatant was isolated. Samples were then stored in a refrigerator at a temperature below −70 °C.
Clinical outcomes were classified as cured (resolution of symptoms/signs of pneumonia plus improvement or lack of progression in radiologic pulmonary infiltrates, and antibiotics-free), improved (significant improvement of symptoms/signs of pneumonia plus improvement or lack of progression in radiologic abnormalities, but remaining on antibiotic treatment), and failed (persistent or worsening of symptoms/signs of pneumonia, persistent or progression of radiologic pulmonary infiltrates that required additional antibiotic therapy, or death).

## Colistimethate sodium [CMS]
Nebulized CMS 3.75 MIU/day
  Clinical outcomes: failed, number of patients: 4
  Microbiologic outcomes: eradication, number of patients: 8
  Microbiologic outcomes: indeterminate, number of patients: 2
  Microbiologic outcomes: persistence, number of patients: 10
  Survival: no, number of patients: 15
  Survival: yes, number of patients: 5
Nebulized CMS 3.75 MIU/day in four doses at 6 h intervals
  Clinical outcomes: cured, number of patients: 16

Source: PMC10967270, “Intrapulmonary and Systemic Pharmacokinetics of Colistin Following Nebulization of Low-Dose Colistimethate Sodium in Patients with Ventilator-Associated Pneumonia Caused by Carbapenem-Resistant Acinetobacter baumannii” (Antibiotics, 2024)
